Assay results from patent EP4635499A1, “PHARMACEUTICAL COMPOSITION FOR VASCULAR MALFORMATIONS AND METHOD FOR CURING VASCULAR MALFORMATIONS” (ARTham Therapeutics Inc., priority 2022, dated 2024).
“And” between values parts separate entries of the source, which are not always exact repeats. Equal entries are not always repeated.

Key:
[1] = test system: vascular malformation patients; assay: Randomized double-blind study in vascular malformation patients: hyperglycemia side effect diagnosed by a physician; format: in vivo, human; conditions: 50 mg or 100 mg serabelisib once a day for 24 weeks; 35 patients; diagnosed by a physician based on test values such as a blood glucose value
From the text: According to an embodiment, the side effects are hyperglycemia and hypercreatinemia. According to an embodiment, the side effect is hyperglycemia. In the present Description, "hyperglycemia" is an adverse event (side effect) associated with the pharmacological action of a drug and is diagnosed by a physician based on test values such as the blood glucose level.
The efficacy was confirmed in a randomized double-blind study in vascular malformation patients. A serabelisib-containing dry syrup (contained 200 mg of serabelisib in 1 g) was administered orally for 24 weeks once a day after breakfast at an adult serabelisib dose of 50 mg or an adult serabelisib dose of 100 mg. For the pediatric patients, the administered dose was made the dose calculated based on body surface area conversion according to the Crawford formula for each of the adult doses. The primary endpoint was the response rate based on the volume change (measured by MRI) of the target lesion at the end of 24 weeks of administration.
• (1) The study is discontinued when a test value of 140 mg/dL or higher is observed for the blood glucose level (fasting) in the clinical test performed at each visit. • (2) The study is discontinued when the clinical tests performed at each visit meets all of the following criteria stipulated for each age group.

[2] = test system: vascular malformation patients; assay: Randomized double-blind study in vascular malformation patients: response rate and volume change of target lesion measured by MRI; format: in vivo, human; conditions: oral; for RESPONSE RATE AT 12 WEEKS OF ADMINISTRATION: once a day after breakfast, week 12, response = complete + partial (at least 20% reduction in target lesion volume, MRI); for VOLUME CHANGE (AVERAGE VALUE) OF TARGET LESION AT 24 WEEKS OF ADMINISTRATION / RESPONSE RATE AT 24 WEEKS OF ADMINISTRATION: once a day, week 24; for VOLUME CHANGE (AVERAGE VALUE) OF TARGET LESION AT 24 WEEKS OF ADMINISTRATION: MRI; for RESPONSE RATE AT 24 WEEKS OF ADMINISTRATION: primary endpoint
Description: The efficacy was confirmed in a randomized double-blind study in vascular malformation patients. A serabelisib-containing dry syrup (contained 200 mg of serabelisib in 1 g) was administered orally for 24 weeks once a day after breakfast at an adult serabelisib dose of 50 mg or an adult serabelisib dose of 100 mg. For the pediatric patients, the administered dose was made the dose calculated based on body surface area conversion according to the Crawford formula for each of the adult doses. The primary endpoint was the response rate based on the volume change (measured by MRI) of the target lesion at the end of 24 weeks of administration. In the analysis of the primary endpoint for evaluating efficacy, a complete response was defined as the disappearance of the target lesion and a partial response was defined as an at least 20% reduction in the volume of the target lesion in comparison to that at the time of the screening test. The 95% confidence interval for the response rate (the sum of complete responses and partial responses as a percentage of the total) based on the change in target lesion volume (measured by MRI) between prior to administration and the time point of completion of 24 weeks of administration, was calculated using the Clopper-Pearson method, and whether its lower limit exceeded 12.5% was checked. For the secondary endpoint, the […] based on the change in target lesion volume (measured by MRI) at the time point of completion of 12 weeks of administration was evaluated. With respect to blood vessel malformation lesions, cystic components of lymphatic malformations, lymphedema, lymph fluid, and lymphorrhea (including also intraosseous, extraosseous, and subcutaneous), which are components of vascular malformations, the target lesion detected using the T2 fat-suppressed image was selected for the target lesion and its volume was measured.

[3] = test system: vascular malformation patients; assay: Randomized double-blind study in vascular malformation patients: pain severity by Visual Analogue Scale (VAS); format: in vivo, human; conditions: for VAS AVERAGE VALUE / VAS MEDIAN VALUE: scale 0-100
Description: The efficacy was confirmed in a randomized double-blind study in vascular malformation patients. A serabelisib-containing dry syrup (contained 200 mg of serabelisib in 1 g) was administered orally for 24 weeks once a day after breakfast at an adult serabelisib dose of 50 mg or an adult serabelisib dose of 100 mg. For the pediatric patients, the administered dose was made the dose calculated based on body surface area conversion according to the Crawford formula for each of the adult doses. The primary endpoint was the response rate based on the volume change (measured by MRI) of the target lesion at the end of 24 weeks of administration. The severity of pain at the baseline, week 4 of administration, week 12 of administration, and week 24 of administration was evaluated (using VAS). A 10-cm straight line was drawn on the recording paper; the left end was defined as 0 and the right end was defined as 100; "0" was assigned to a condition of "pain completely absent" and "100" was assigned to a condition of "the worst pain, or a more severe pain cannot be imagined"; and inquiry was made as to where the current pain level was on the straight line and this was recorded. It was also recorded when the information about a subject was provided by someone else who was not the subject. In addition, the subjects were classified into under 15 years and 15 years and over for the age when consent was obtained, and recording paper appropriate for each age group was used.

[4] = existing therapeutic agents for vascular malformations; NPL 2, NPL 3; cited from earlier work

Nc1nc2cc(-c3ccc4ncc(C(=O)N5CCOCC5)n4c3)ccc2o1 [ART-001, serabelisib]
Hyperglycemia side effect [1]: no subject exhibited an event that was diagnosed as hyperglycemia | RESPONSE RATE AT 12 WEEKS OF ADMINISTRATION ([2]; 50 mg serabelisib (adult dose) as dry syrup, 17 subjects): 0% (0) | VOLUME CHANGE (AVERAGE VALUE) OF TARGET LESION AT 24 WEEKS OF ADMINISTRATION ([2]; 50 mg serabelisib): -2.3% | RESPONSE RATE AT 24 WEEKS OF ADMINISTRATION ([2]; 50 mg serabelisib, 17 subjects, 95% confidence interval 10.3% - 56.0% (Clopper-Pearson)): 29.4% (6) and 29.4% (5) | RESPONSE RATE AT 24 WEEKS OF ADMINISTRATION ([2]; 50 mg serabelisib, 17 subjects, 95% confidence interval 10.3% - 56.0% (Clopper-Pearson), listed as serabelisib): 29.4% | RESPONSE RATE AT 12 WEEKS OF ADMINISTRATION ([2]; 100 mg serabelisib (adult dose) as dry syrup, 18 subjects): 16.7% (3) | VOLUME CHANGE (AVERAGE VALUE) OF TARGET LESION AT 24 WEEKS OF ADMINISTRATION ([2]; 100 mg serabelisib): -12.6% | RESPONSE RATE AT 24 WEEKS OF ADMINISTRATION ([2]; 100 mg serabelisib, 18 subjects, 95% confidence interval 13.3% - 59.0% (Clopper-Pearson)): 33.3% (6) | RESPONSE RATE AT 24 WEEKS OF ADMINISTRATION ([2]; 100 mg serabelisib, 18 subjects, 95% confidence interval 13.3% - 59.0% (Clopper-Pearson), listed as serabelisib): 33.3% | VAS AVERAGE VALUE ([3]; 50 mg administration group, WEEK 4 OF ADMINISTRATION, baseline average 29.4): 20.6 | VAS MEDIAN VALUE ([3]; 50 mg administration group, WEEK 4 OF ADMINISTRATION, baseline median 16.0): 6.0 | VAS AVERAGE VALUE ([3]; 50 mg administration group, WEEK 12 OF ADMINISTRATION, baseline average 29.4): 21.2 | VAS AVERAGE VALUE ([3]; 50 mg administration group, WEEK 24 OF ADMINISTRATION, baseline average 29.4): 16.1 | VAS MEDIAN VALUE ([3]; 50 mg administration group, WEEK 24 OF ADMINISTRATION, baseline median 16.0): 4.0 | VAS AVERAGE VALUE ([3]; 100 mg administration group, WEEK 4 OF ADMINISTRATION, baseline average 24.6): 15.8 | VAS MEDIAN VALUE ([3]; 100 mg administration group, WEEK 4 OF ADMINISTRATION, baseline median 20.0): 2.0 | VAS AVERAGE VALUE ([3]; 100 mg administration group, WEEK 12 OF ADMINISTRATION, baseline average 24.6): 15.7 | VAS MEDIAN VALUE ([3]; 100 mg administration group, WEEK 12 OF ADMINISTRATION, baseline median 20.0): 2.0 | VAS AVERAGE VALUE ([3]; 100 mg administration group, WEEK 24 OF ADMINISTRATION, baseline average 24.6): 12.4 | VAS MEDIAN VALUE ([3]; 100 mg administration group, WEEK 24 OF ADMINISTRATION, baseline median 20.0): 8.0 | average values and median values of the VAS after the treatment ([3]; both the 50 mg administration group and the 100 mg administration group, versus baseline): reduced

CO[C@H]1C[C@@H]2CC[C@@H](C)[C@@](O)(O2)C(=O)C(=O)N2CCCC[C@H]2C(=O)O[C@H]([C@H](C)C[C@@H]2CC[C@@H](O)[C@H](OC)C2)CC(=O)[C@H](C)/C=C(\C)[C@@H](O)[C@@H](OC)C(=O)[C@H](C)C[C@H](C)/C=C/C=C/C=C/1C [Sirolimus, sirolimus]
known side effects [4]: immunosuppression, hyperglycemia (unknown frequency)

Cc1nc(NC(=O)N2CCC[C@H]2C(N)=O)sc1-c1ccnc(C(C)(C)C(F)(F)F)c1 [Alpelisib, alpelisib]
known side effects [4]: hyperglycemia
